Measurements reported in patent US10300092B2, “Bee bloom compositions, methods of extraction and uses thereof” (KANE, Penny Coleen, priority 2011, dated 2019).

Tested on: sensitized rat intestine
Assay: In vitro anaphylaxis: ovalbumin (antigen)-induced contractile response of sensitized rat intestine in organ bath
Type: cell-based
Settings: control peptide feG 10^−8 M
Procedure: Data are expressed as the mean +/− standard error. The data were analyzed using Student's t test for paired samples. Significant differences were accepted if p <0.05. Outlier analysis was performed using a modified Z-score that uses the median of absolute deviation A Z-score with an absolute value of greater than 4.0 was labeled as a potential outlier, and the corresponding data value was excluded.
Male Sprague Dawley rats (Charles River Laboratories, Montreal, QC) of initial weights of 150 g were maintained with lights on from 700 to 1900 h and given food and water ad libitum. The rats were sensitized to 1 mg ovalbumin (OA) using 50 ng of pertussis toxin (Sigma-Aldrich, St. Louis, Mo.) as an adjuvant.
Five to eight weeks following sensitization, the terminal duodenum of the rats was excised and 1 cm sections were mounted in 25 ml organ baths, containing bicarbonate Krebs′ buffer, with 1.0 g of tension. The isometric force generated in response to OA and carbachol (CAR; (2-[(aminocaronyl)oxyl-N,N,N-trimethylethanaminium), a cholinergic agonist, (Sigma-Aldrich) was measured using a Grass Force Displacement Transducer FTO3 (Quincy, MA>. Data were recorded with PolyView software (Polybytes, Inc., Cedar Rapids, Iowa). The tissues were allowed to equilibrate for 30 min during which they were washed several times with buffer, and applied tension was adjusted.
Eight tissue segments were mounted in separate tissue baths, with one tissue segment serving to evaluate if the intestinal tissues elicit a contractile response to the antigen. […] In the absence of a contractile response to antigen the tissues were discarded, and another animal taken.
Once peak contractile responses were attained the tissues were washed three times, baseline re-established and peak contractile response to 10^−5M CAR obtained. The mucosa was then scraped from the tissue, and the mass of the muscle determined. Responses were determined as grams of force/mg wet tissue.
Contractile responses to OA and CAR were measured at peak contraction, and calculated as grams of force per gram wet tissue. Results are expressed in three formats: • i) the amplitude of the OA-induced contractile response (grams of force/mg wet tissue), • ii) the ratio of the Bee Bloom response to the OR response (Bee Bloom/OA) (i.e. animal matched control), • iii) the ratio of the OA and CAR-induced contractile responses (ONCAR) (i.e. tissue matched controls).

Q: Which results are given for “D-phenylalanine-D-glutamate-Glycine [control]”?
A: inhibition of antigen-induced contractions (FIGS. 1 and 2): significantly inhibited; inhibition of antigen-induced contractions, ratio to OA response, animal matched control (FIG. 3): significantly inhibited; inhibition of the OA:CAR ratio, tissue matched controls (FIG. 4): did not significantly inhibit; inhibition of antigen-induced contractions (stated as closely matched by Bee Bloom): ~−40%
